{"source": "patent US20250339443A1", "about": "“METHOD FOR TREATING OR PREVENTING CALCIUM RELEASE-ACTIVATED CALCIUM CHANNEL OR DISCOIDIN DOMAIN RECEPTOR 2 RELATED DISORDERS OR CONDITIONS” (LumiSTAR Biotechnology, Inc., priority 2023, published 2025)", "target": "T1, DDR2 (Homo sapiens, UniProt Q16832)", "T1 construct": "expressed in transfected cells; host or cells: HEK293T", "T1 sequence (Q16832 22-855)": "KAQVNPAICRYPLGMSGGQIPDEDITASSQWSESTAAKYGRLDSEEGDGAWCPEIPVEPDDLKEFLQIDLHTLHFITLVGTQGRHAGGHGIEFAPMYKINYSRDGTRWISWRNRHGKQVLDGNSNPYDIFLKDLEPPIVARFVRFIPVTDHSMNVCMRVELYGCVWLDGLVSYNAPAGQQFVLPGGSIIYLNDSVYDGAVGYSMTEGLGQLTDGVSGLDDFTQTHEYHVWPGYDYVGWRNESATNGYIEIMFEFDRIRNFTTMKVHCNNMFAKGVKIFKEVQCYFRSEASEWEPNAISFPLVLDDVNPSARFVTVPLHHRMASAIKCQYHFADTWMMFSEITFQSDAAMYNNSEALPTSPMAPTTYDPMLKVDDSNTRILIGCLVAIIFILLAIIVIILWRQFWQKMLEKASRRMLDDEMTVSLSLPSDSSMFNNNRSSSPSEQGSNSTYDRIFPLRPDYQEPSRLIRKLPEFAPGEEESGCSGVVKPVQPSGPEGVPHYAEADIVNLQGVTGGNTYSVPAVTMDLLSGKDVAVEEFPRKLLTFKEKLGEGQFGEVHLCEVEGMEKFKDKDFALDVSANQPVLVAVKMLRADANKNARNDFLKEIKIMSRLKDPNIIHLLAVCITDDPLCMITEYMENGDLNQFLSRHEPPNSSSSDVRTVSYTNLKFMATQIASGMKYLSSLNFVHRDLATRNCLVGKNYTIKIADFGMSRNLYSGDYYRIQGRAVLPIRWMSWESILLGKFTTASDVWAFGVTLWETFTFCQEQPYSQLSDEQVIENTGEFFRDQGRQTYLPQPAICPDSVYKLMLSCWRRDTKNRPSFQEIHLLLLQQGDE", "test": "DDR2 activation (anti-phosphotyrosine Western blot) in HEK293T cells overexpressing DDR2, collagen-stimulated", "format": "cell-based", "details": "10 μM pretreatment 30 minutes, then 50 μg/mL type I collagen 12 hours", "experimental": "FIG. 1A, FIG. 1B, FIG. 1C, FIG. 1D, FIG. 1E, FIG. 1F, FIG. 1G, FIG. 1H, FIG. 1I, FIG. 1J, FIG. 1K, FIG. 1L, FIG. 1M, and FIG. 1N show WRG-28 and atovaquone (Av) suppress the activation of DDR2 and calcium release-activated calcium (CRAC) channel. FIG. 1A indicates HEK293T cells were transiently overexpressed with DDR2 and then pretreated with different compounds (10 μM), including WRG-28, Av, donepezil hydrochloride (Dh), terazosin hydrochloride (Th), verapamil and flecainide for 30 minutes. Verapamil and flecainide were used as negative control here. After that, cells were treated with 50 μg/mL type I collagen for 12 hours. Cell lysates were harvested and subjected to Western blot analysis with antibodies against phosphotyrosine antibody (clone 4G10), DDR2, and β-actin. […] CRAC channel activity was evaluated by applying 1 μM thapsigargin (Thap.) in a calcium-free solution to deplete the endoplasmic reticulum calcium store, followed by the reintroduction of 2 mM Ca^2+ in an external solution. […] Further analyses are presented in FIG. 1I and FIG. 1J, where the second peak of each wave and rate of entry were analyzed. […] The Orai1 and Stim1 puncta in HEK293T cells overexpressed with CFP-Orai1/Stim1-mCherry were assessed. […]\nCell lysates were harvested in RIPA buffer (150 mM NaCl, 1 mM EGTA, 50 mM Tris pH 7.4, 10% glycerol, 1% Triton X-100, 1% sodium deoxycholate, 0.1% SDS, and protease inhibitor cocktail) and collected from culture dish with cell scrapers. […] The protein expression levels were assessed by specific primary antibodies, including antibodies against phosphotyrosine (clone 4G10; Millipore), DDR2 (R&D), α-SMA (Sigma), Collagen 1a1 (Boster), E-cadherin (BD Biosciences), SGLT2 (Proteintech), NHE1 (Novus) and β-actin (Clone C4, Millipore), followed by incubating with secondary antibodies conjugated with HRP and detected by ECL kit (Thermo Scientific).\nTo examine the impact of these compounds on DDR2 activation, HEK293T cells overexpressing DDR2 were pretreated with various compounds. […] The activation of DDR2 was evaluated using an anti-phosphotyrosine antibody. […]", "data": [{"smiles": "CCNS(=O)(=O)c1ccc(COc2ccc3nc4ccc(=O)cc-4oc3c2)cc1", "note": "[WRG-28]", "values": [{"measurement": "activation of DDR2 (phosphotyrosine)", "result": "suppress"}]}]}
